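Following 48 hours of exposure in 96-well plates, responses at five concentrations were used to interpolate endpoints linearly. GI50 = concentration required for 50% inhibition of growth.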 Calls of active or inactive are those of the source. Cut-off read from the data, not from the text of the source: active = GI50 up to about 1.1 µM and inactive = higher.
Tests used:
Assay in all cases: growth of human tumour cells (NCI), 48 h
[1] = tested on: ACHN
[2] = tested on: BT-549
[3] = tested on: CAKI-1
[4] = tested on: CCRF-CEM
[5] = tested on: HOP-62
[6] = tested on: KM12
[7] = tested on: MDA-MB-435
[8] = tested on: Malme-3M
[9] = tested on: NCI-H226
[10] = tested on: NCI-H23
[11] = tested on: NCI-H460
[12] = tested on: OVCAR-3
[13] = tested on: OVCAR-5
[14] = tested on: RXF 393
[15] = tested on: SK-MEL-5
[16] = tested on: SNB-75
[17] = tested on: SR
[18] = tested on: SW-620
[19] = tested on: U-251
[20] = tested on: UACC-62

Row | SMILES | GI50 [1] | GI50 [2] | GI50 [3] | GI50 [4] | GI50 [5] | GI50 [6] | GI50 [7] | GI50 [8] | GI50 [9] | GI50 [10] | GI50 [11] | GI50 [12] | GI50 [13] | GI50 [14] | GI50 [15] | GI50 [16] | GI50 [17] | GI50 [18] | GI50 [19] | GI50 [20]
1 | Oc1ncnc2c1nnn2CCCCCCCCCCCCn1nnc2c(O)ncnc21 | 32.3 µM (inactive) | 28.8 µM (inactive) | > 100 µM (inactive) | > 100 µM (inactive) | 21.7 µM (inactive) | > 100 µM (inactive) | > 100 µM (inactive) | > 100 µM (inactive) | 32.6 µM (inactive) | 5.68 µM (inactive) | 51.8 µM (inactive) | 40.5 µM (inactive) | 99.1 µM (inactive) | 24.3 µM (inactive) | 19.8 µM (inactive) | > 40.9 µM (inactive) | > 35.2 µM (inactive) | > 100 µM (inactive) | 21.5 µM (inactive) | 36.9 µM (inactive)
2 | CC1=NN=C(C)C1/N=N/c1ccc2[nH]c(C)nc2c1 | 7.46 µM (inactive) | 20.8 µM (inactive) | 5.02 µM (inactive) | 32.3 µM (inactive) | 26.4 µM (inactive) | 35.4 µM (inactive) | 16.2 µM (inactive) | 6.85 µM (inactive) | 3.84 µM (inactive) | 37.3 µM (inactive) | 11 µM (inactive) | 13.4 µM (inactive) | 26.2 µM (inactive) | 5.16 µM (inactive) | 18.2 µM (inactive) | 22.9 µM (inactive) | 5.41 µM (inactive) | 25.3 µM (inactive) | 34.6 µM (inactive) | 14.9 µM (inactive)
3 | O=C(O)c1cc2ccccc2c(O)c1O | 16.9 µM (inactive) | 16.1 µM (inactive) | 17.3 µM (inactive) | 5.75 µM (inactive) | 18.9 µM (inactive) | 16.3 µM (inactive) | 1.85 µM (inactive) | 1.8 µM (inactive) | 13.7 µM (inactive) | 7.29 µM (inactive) | 22.9 µM (inactive) | 13.5 µM (inactive) | 16.9 µM (inactive) | 17.3 µM (inactive) | 2.92 µM (inactive) | 17.9 µM (inactive) | > 45.4 µM (inactive) | 19.7 µM (inactive) | 16.8 µM (inactive) | 5.98 µM (inactive)
4 | OC12CC3c4ccccc4NC3C3Oc4cccc5c4C31CCN(CC1CC1)C2C5 (stereo not given) | 18.9 µM (inactive) | 16.3 µM (inactive) | 17.6 µM (inactive) | 23.4 µM (inactive) | 18.5 µM (inactive) | 18.8 µM (inactive) | 17.9 µM (inactive) | 19.7 µM (inactive) | 26.1 µM (inactive) | 13 µM (inactive) | 17.6 µM (inactive) | 16.9 µM (inactive) | 21.1 µM (inactive) | 14.3 µM (inactive) | 16.8 µM (inactive) | 15.3 µM (inactive) | 17.4 µM (inactive) | 11.8 µM (inactive) | 17.3 µM (inactive) | 18.4 µM (inactive)
5 | CC1OC(OC2C(CO)OC(O[C@H]3CC[C@@]4(C)C(=CC[C@H]5[C@@H]6C[C@@H]7O[C@](O)(CC[C@H](C)COC8OC(CO)C(O)C(O)C8O)[C@@H](C)[C@@H]7[C@@]6(C)CC[C@@H]54)C3)C(OC3OC(C)C(O)C(O)C3O)C2O)C(O)C(O)C1O (stereo not given in full) | 14.3 µM (inactive) | 4.48 µM (inactive) | 1.77 µM (inactive) | 1.42 µM (inactive) | 2.18 µM (inactive) | 2.36 µM (inactive) | 2.07 µM (inactive) | 5.6 µM (inactive) | 9.62 µM (inactive) | 4.29 µM (inactive) | 4.81 µM (inactive) | 8.2 µM (inactive) | 10.8 µM (inactive) | 5.11 µM (inactive) | 7.1 µM (inactive) | 2.16 µM (inactive) | > 100 µM (inactive) | 0.644 µM (active) | 3.15 µM (inactive) | 5.42 µM (inactive)
6 | CNC(=O)C1CCCN1C(=O)C(Cc1c[nH]cn1)NC(=O)C1CCC(=O)N1 (stereo not given) | > 100 µM (inactive) | > 100 µM (inactive) | > 100 µM (inactive) | > 100 µM (inactive) | > 100 µM (inactive) | > 100 µM (inactive) | > 100 µM (inactive) | > 100 µM (inactive) | > 100 µM (inactive) | > 100 µM (inactive) | > 100 µM (inactive) | > 100 µM (inactive) | > 100 µM (inactive) | > 100 µM (inactive) | > 100 µM (inactive) | > 100 µM (inactive) | > 100 µM (inactive) | > 100 µM (inactive) | > 100 µM (inactive) | > 100 µM (inactive)
7 | O=C(NCCCCl)c1c(O)c2ccccc2[nH]c1=O | > 100 µM (inactive) | > 78 µM (inactive) | > 100 µM (inactive) | > 100 µM (inactive) | > 50.6 µM (inactive) | > 100 µM (inactive) | > 100 µM (inactive) | > 100 µM (inactive) | > 100 µM (inactive) | > 87.3 µM (inactive) | > 100 µM (inactive) | > 100 µM (inactive) | > 100 µM (inactive) | > 41.3 µM (inactive) | > 100 µM (inactive) | > 54.5 µM (inactive) | > 100 µM (inactive) | > 100 µM (inactive) | > 100 µM (inactive) | > 50.9 µM (inactive)
8 | Nc1[nH]c(=S)[nH]c(=O)c1/N=N/c1c(Br)cc(S(N)(=O)=O)cc1Br | > 100 µM (inactive) | > 100 µM (inactive) | > 100 µM (inactive) | > 100 µM (inactive) | > 100 µM (inactive) | > 100 µM (inactive) | > 100 µM (inactive) | > 100 µM (inactive) | > 100 µM (inactive) | > 100 µM (inactive) | > 100 µM (inactive) | > 100 µM (inactive) | > 100 µM (inactive) | > 100 µM (inactive) | > 100 µM (inactive) | 35.7 µM (inactive) | > 100 µM (inactive) | > 100 µM (inactive) | > 100 µM (inactive) | > 100 µM (inactive)
9 | CC1=NC(=Cc2cc(Br)cc(Br)c2)C(=O)N1n1c(-c2ccccc2)nc2ccccc2c1=O | > 100 µM (inactive) | > 100 µM (inactive) | > 100 µM (inactive) | > 100 µM (inactive) | > 100 µM (inactive) | > 100 µM (inactive) | 72.3 µM (inactive) | > 100 µM (inactive) | > 100 µM (inactive) | > 100 µM (inactive) | > 100 µM (inactive) | > 100 µM (inactive) | > 100 µM (inactive) | > 100 µM (inactive) | > 100 µM (inactive) | > 100 µM (inactive) | 55.2 µM (inactive) | > 100 µM (inactive) | > 100 µM (inactive) | > 100 µM (inactive)
10 | CCN(CC)Cc1nc(C2CCC([N+](=O)[O-])O2)no1 (stereo not given) | 98.2 µM (inactive) | 23.3 µM (inactive) | 72.8 µM (inactive) | 31.9 µM (inactive) | 35.7 µM (inactive) | 26.5 µM (inactive) | 18.1 µM (inactive) | 15.9 µM (inactive) | 67.8 µM (inactive) | 19.3 µM (inactive) | 20.5 µM (inactive) | 23.8 µM (inactive) | 29.3 µM (inactive) | 31 µM (inactive) | 16.4 µM (inactive) | 16.6 µM (inactive) | 28.2 µM (inactive) | 19.4 µM (inactive) | 28.5 µM (inactive) | 14.8 µM (inactive)
11 | O=S1(=O)c2cnccc2N=C(NCc2ccccc2)N1c1ccccc1 | 36.7 µM (inactive) | > 100 µM (inactive) | > 100 µM (inactive) | 41 µM (inactive) | > 100 µM (inactive) | > 100 µM (inactive) | 92.3 µM (inactive) | > 100 µM (inactive) | > 100 µM (inactive) | 64.3 µM (inactive) | 49.7 µM (inactive) | 45.7 µM (inactive) | > 100 µM (inactive) | > 100 µM (inactive) | 55.5 µM (inactive) | 69.5 µM (inactive) | 58.6 µM (inactive) | > 100 µM (inactive) | 98.2 µM (inactive) | 46.7 µM (inactive)
12 | O=C(O)c1cccc(S(=O)(=O)NN2C(=O)CSC2c2ccccc2)c1 (stereo not given) | > 100 µM (inactive) | > 100 µM (inactive) | > 100 µM (inactive) | > 100 µM (inactive) | > 100 µM (inactive) | > 100 µM (inactive) | > 100 µM (inactive) | > 100 µM (inactive) | > 100 µM (inactive) | > 100 µM (inactive) | > 100 µM (inactive) | > 100 µM (inactive) | > 100 µM (inactive) | > 100 µM (inactive) | > 100 µM (inactive) | > 100 µM (inactive) | 32.9 µM (inactive) | > 100 µM (inactive) | > 100 µM (inactive) | > 100 µM (inactive)
13 | O=C1/C(=C\c2ccc([N+](=O)[O-])cc2)CS(=O)(=O)C/C1=C/c1ccc([N+](=O)[O-])cc1 | 0.705 µM (active) | 0.316 µM (active) | 1.4 µM (inactive) | 0.264 µM (active) | 1.23 µM (inactive) | 0.327 µM (active) | 0.358 µM (active) | 0.41 µM (active) | 2.83 µM (inactive) | 0.904 µM (active) | 0.515 µM (active) | 0.141 µM (active) | 1.36 µM (inactive) | 0.482 µM (active) | 1.4 µM (inactive) | 15.5 µM (inactive) | 0.03 µM (active) | 0.262 µM (active) | 0.298 µM (active) | 0.198 µM (active)

Reference: ChEMBL document CHEMBL1201862, “PubChem BioAssay data set” (2004)
